Experimental data as given in US12492173B2, “Herbicidal substituted N-tetrazolyl aryl carboxamides” (Bayer Aktiengesellschaft, priority 2019, dated 2025).

Experiments:
Type in all cases: in vivo
Abutilon theophrasti [1] = experiment: Pre-emergence herbicidal action, ABUTH; details: dosage 320 g/ha
Text: (§1) 1. Pre-Emergence Herbicidal Action Against Harmful Plants Seeds of monocotyledonous and dicotyledonous weed plants and crop plants are laid out in sandy loam soil in wood-fiber pots and covered with soil. The compounds of the invention, formulated in the form of wettable powders (WP) or as emulsion concentrates (EC), are then applied to the surface of the covering soil in the form of an aqueous suspension or emulsion at a water application rate equating to 600 to 800 l/ha, with addition of 0.2% wetting agent. After the treatment, the pots are placed in a greenhouse and kept under good growth conditions for the trial plants. The damage to the test plants is scored visually after a test period of 3 weeks by comparison with untreated controls (herbicidal activity in percent (%): 100% activity=the plants have died, 0% activity=like control plants). […] The tables below illustrate, in an exemplary manner, the […] herbicidal action of the compounds according to the invention, the herbicidal activity being stated in percent. [table] In the experiments that follow, herbicidal action of numerous inventive compounds and the known compounds that are structurally closest from D1 (WO 2012/028579 A1) and D2 (WO 2018/202535 A1) were compared under the above-specified conditions by the pre-emergence and post-emergence method. The example numbers given in the tables relate to the compounds disclosed in the respective documents. In addition to the compounds disclosed in D1 and D2, the following compounds V-1 to V-14 that are encompassed by D1 or D2 but are not compounds specified therein were used in the comparative experiments: • V-1: 2-(methylsulfanyl)-3-(methylsulfinyl)-N-(1-methyl-1H-tetrazol-5-yl)-4-(trifluoromethyl)benzamide • V-2: 2-(methylsulfanyl)-3-(methylsulfonyl)-N-(1-methyl-1H-tetrazol-5-yl)-4-(trifluoromethyl)benzamide • V-3: 2,3-bis(ethylsulfanyl)-N-(1-methyl-1H-tetrazol-5-yl)-4-(trifluoromethyl)benzamide • V-4: 2-chloro-3-(ethylsulfanyl)-N-(1-methyl-1H-tetrazol-5-yl)-4-(trifluoromethyl)benzamide • V-5: 2-chloro-4-iodo-3-(methylsulfanyl)-N-(1-methyl-1H-tetrazol-5-yl)benzamide • V-6: 2-chloro-4-iodo-3-(methylsulfinyl)-N-(1-methyl-1H-tetrazol-5-yl)benzamide • V-7: 2-chloro-4-iodo-3-(methylsulfonyl)-N-(1-methyl-1H-tetrazol-5-yl)benzamide • V-8: 2-bromo-3-(methylsulfanyl)-N-(1-methyl-1H-tetrazol-5-yl)-4-(trifluoromethyl)benzamide • V-9: 2-bromo-3-(methylsulfinyl)-N-(1-methyl-1H-tetrazol-5-yl)-4-(trifluoromethyl)benzamide • V-10: 2-bromo-3-(methylsulfonyl)-N-(1-methyl-1H-tetrazol-5-yl)-4-(trifluoromethyl)benzamide • V-11: 2-bromo-3-(ethylsulfanyl)-N-(1-methyl-1H-tetrazol-5-yl)-4-(trifluoromethyl)benzamide • V-12: 2-bromo-3-(ethylsulfinyl)-N-(1-methyl-1H-tetrazol-5-yl)-4-(trifluoromethyl)benzamide • V-13: 2-bromo-3-(ethylsulfonyl)-N-(1-methyl-1-1H-tetrazol-5-yl)-4-(trifluoromethyl)benzamide • V-14: 2-cyclopropyl-3-(ethylsulfanyl)-N-(1-methyl-1H-tetrazol-5-yl)-4-(trifluoromethyl)benzamide Herbicidal Pre-Emergence Action: […]

Amaranthus retroflexus [2] = experiment: Pre-emergence herbicidal action, AMARE; set-up: key to Herbicidal action against AMARE: % activity: 100 = plants have died, 0 = like control plants; details: for herbicidal action AMARE: dosage 320 g/ha
Text: as §1

Echinochloa crus-galli [3] = experiment: Pre-emergence herbicidal action, ECHCG; details: for herbicidal action ECHCG: dosage 320 g/ha
Text: as §1

Matricaria inodora [4] = experiment: Pre-emergence herbicidal action, MATIN; set-up: key to Herbicidal action against MATIN: % activity: 100 = plants have died, 0 = like control plants; details: for herbicidal action MATIN: dosage 320 g/ha
Text: as §1

Stellaria media [5] = experiment: Pre-emergence herbicidal action, STEME; set-up: key to Herbicidal action against STEME: % activity: 100 = plants have died, 0 = like control plants; details: for herbicidal action STEME: dosage 320 g/ha
Text: as §1

Veronica persica [6] = experiment: Pre-emergence herbicidal action, VERPE; set-up: key to Herbicidal action against VERPE: % activity: 100 = plants have died, 0 = like control plants; details: for herbicidal action VERPE: dosage 320 g/ha
Text: as §1

Viola tricolor [7] = experiment: Pre-emergence herbicidal action, VIOTR; set-up: key to Herbicidal action against VIOTR: % activity: 100 = plants have died, 0 = like control plants; details: for herbicidal action VIOTR: dosage 320 g/ha
Text: as §1

Amaranthus retroflexus [8] = experiment: Post-emergence herbicidal action, AMARE; set-up: key: % herbicidal action vs untreated; 100 = plants died, 0 = like control; details: for Herbicidal action against AMARE: post-emergence
Method: (§2) [table] 2. Post-Emergence Herbicidal Action Against Harmful Plants Seeds of monocotyledonous and dicotyledonous weed and crop plants are laid out in sandy loam soil in wood-fiber pots, covered with soil and cultivated in a greenhouse under good growth conditions. 2 to 3 weeks after sowing, the test plants are treated at the one-leaf stage. The compounds of the invention, formulated in the form of wettable powders (WP) or as emulsion concentrates (EC), are then sprayed onto the green parts of the plants in the form of an aqueous suspension or emulsion at a water application rate equating to 600 to 800 l/ha, with addition of 0.2% wetting agent. After the test plants have been left to stand in the greenhouse under optimal growth conditions for about 3 weeks, the action of the preparations is assessed visually in comparison to untreated controls (herbicidal action in percent (%): 100% activity=the plants have died, 0% activity=like control plants). […] The tables below illustrate, in an exemplary manner, the post-emergence herbicidal action of the compounds according to the invention, the herbicidal activity being stated in percent. In the experiments that follow, herbicidal action of numerous inventive compounds and the known compounds that are structurally closest from D1 (WO 2012/028579 A1) and D2 (WO 2018/202535 A1) were compared under the above-specified conditions by the pre-emergence and post-emergence method. The example numbers given in the tables relate to the compounds disclosed in the respective documents. In addition to the compounds disclosed in D1 and D2, the following compounds V-1 to V-14 that are encompassed by D1 or D2 but are not compounds specified therein were used in the comparative experiments: • V-1: 2-(methylsulfanyl)-3-(methylsulfinyl)-N-(1-methyl-1H-tetrazol-5-yl)-4-(trifluoromethyl)benzamide • V-2: 2-(methylsulfanyl)-3-(methylsulfonyl)-N-(1-methyl-1H-tetrazol-5-yl)-4-(trifluoromethyl)benzamide • V-3: 2,3-bis(ethylsulfanyl)-N-(1-methyl-1H-tetrazol-5-yl)-4-(trifluoromethyl)benzamide • V-4: 2-chloro-3-(ethylsulfanyl)-N-(1-methyl-1H-tetrazol-5-yl)-4-(trifluoromethyl)benzamide • V-5: 2-chloro-4-iodo-3-(methylsulfanyl)-N-(1-methyl-1H-tetrazol-5-yl)benzamide • V-6: 2-chloro-4-iodo-3-(methylsulfinyl)-N-(1-methyl-1H-tetrazol-5-yl)benzamide • V-7: 2-chloro-4-iodo-3-(methylsulfonyl)-N-(1-methyl-1H-tetrazol-5-yl)benzamide • V-8: 2-bromo-3-(methylsulfanyl)-N-(1-methyl-1H-tetrazol-5-yl)-4-(trifluoromethyl)benzamide • V-9: 2-bromo-3-(methylsulfinyl)-N-(1-methyl-1H-tetrazol-5-yl)-4-(trifluoromethyl)benzamide • V-10: 2-bromo-3-(methylsulfonyl)-N-(1-methyl-1H-tetrazol-5-yl)-4-(trifluoromethyl)benzamide • V-11: 2-bromo-3-(ethylsulfanyl)-N-(1-methyl-1H-tetrazol-5-yl)-4-(trifluoromethyl)benzamide • V-12: 2-bromo-3-(ethylsulfinyl)-N-(1-methyl-1H-tetrazol-5-yl)-4-(trifluoromethyl)benzamide • V-13: 2-bromo-3-(ethylsulfonyl)-N-(1-methyl-1-1H-tetrazol-5-yl)-4-(trifluoromethyl)benzamide • V-14: 2-cyclopropyl-3-(ethylsulfanyl)-N-(1-methyl-1H-tetrazol-5-yl)-4-(trifluoromethyl)benzamide Herbicidal Pre-Emergence Action: […]

Echinochloa crus-galli [9] = experiment: Post-emergence herbicidal action, ECHCG; set-up: key: % herbicidal action vs untreated; 100 = plants died, 0 = like control; details: for Herbicidal action against ECHCG: post-emergence
Method: as §2

Matricaria inodora [10] = experiment: Post-emergence herbicidal action, MATIN; set-up: key: % herbicidal action vs untreated; 100 = plants died, 0 = like control; details: for Herbicidal action against MATIN: post-emergence, dosage 80 g/ha
Method: as §2

Pharbitis purpurea = experiment: Post-emergence herbicidal action, PHBPU; details: for Herbicidal action against PHBPU: post-emergence, dosage 80 g/ha
Method: as §2

Setaria viridis = experiment: Post-emergence herbicidal action, SETVI; set-up: key: % herbicidal action vs untreated; 100 = plants died, 0 = like control; details: post-emergence
Method: as §2

Stellaria media [11] = experiment: Post-emergence herbicidal action, STEME; set-up: key: % herbicidal action vs untreated; 100 = plants died, 0 = like control; details: for Herbicidal action against STEME: post-emergence
Method: as §2

Veronica persica [12] = experiment: Post-emergence herbicidal action, VERPE; set-up: key: % herbicidal action vs untreated; 100 = plants died, 0 = like control; details: for Herbicidal action against VERPE: post-emergence
Method: as §2

Viola tricolor [13] = experiment: Post-emergence herbicidal action, VIOTR; set-up: key: % herbicidal action vs untreated; 100 = plants died, 0 = like control; details: for Herbicidal action against VIOTR: post-emergence
Method: as §2

Abutilon theophrasti [14] = experiment: Post-emergence herbicidal action, ABUTH; set-up: key: % herbicidal action vs untreated; 100 = plants died, 0 = like control; details: for Herbicidal action against ABUTH: post-emergence
Method: as §2

Avena fatua = experiment: Post-emergence herbicidal action, AVEFA; set-up: key: % herbicidal action vs untreated; 100 = plants died, 0 = like control; details: Dosage 80 g/ha
Method: as §2

[15] = comparative experiment, 20 g of a.i./ha
[16] = comparative experiment, 5 g of a.i./ha

Row | Compound | herbicidal action ABUTH (Abutilon theophrasti [1]) [%] | herbicidal action AMARE (Amaranthus retroflexus [2]) [%] | herbicidal action ECHCG (Echinochloa crus-galli [3]) [%] | herbicidal action MATIN (Matricaria inodora [4]) [%] | herbicidal action STEME (Stellaria media [5]) [%] | herbicidal action VERPE (Veronica persica [6]) [%] | herbicidal action VIOTR (Viola tricolor [7]) [%] | Herbicidal action against AMARE (Amaranthus retroflexus [8]; dosage 80 g/ha) | Herbicidal action against ECHCG (Echinochloa crus-galli [9]; dosage 80 g/ha) | Herbicidal action against MATIN (Matricaria inodora [10]) | Herbicidal action against PHBPU (Pharbitis purpurea) | Herbicidal action against SETVI (Setaria viridis; dosage 80 g/ha) | Herbicidal action against STEME (Stellaria media [11]; dosage 80 g/ha) | Herbicidal action against VERPE (Veronica persica [12]; dosage 80 g/ha) | Herbicidal action against VIOTR (Viola tricolor [13]; dosage 80 g/ha) | Herbicidal action against ABUTH (Abutilon theophrasti [14]; dosage 80 g/ha) | also measured
1 | COc1c(C(=O)Nc2nnnn2C)ccc(C(F)(F)F)c1CS(C)(=O)=O [Example 1-136] | 100 | 100 | 100 | 90 | 80 | 100 | 80 | 90 | 90 | 90 | 90 | 90 | 100 | 100 | 90 |  | 
2 | CSCc1c(S(C)(=O)=O)ccc(C(=O)Nc2nnnn2C)c1Cl [Example 1-278] | 90 | 100 | 90 |  | 80 | 90 |  | 100 | 100 |  | 90 | 100 | 90 |  | 100 | 90 | 
3 | Cn1nnnc1NC(=O)c1ccc(C(F)(F)F)c(CS(=O)(=O)CC(F)(F)F)c1Cl [Example 1-313] | 100 | 100 |  |  | 90 |  |  | 90 |  | 90 | 90 | 80 | 100 | 80 | 80 | 100 | 
4 | CCn1nnnc1NC(=O)c1ccc(S(C)(=O)=O)c(CSC)c1Cl [Example 2-278] | 100 | 90 |  | 90 |  | 100 |  |  |  |  |  |  |  |  |  |  | herbicidal action ABUTH (Abutilon theophrasti [14]; Dosage 80 g/ha): 90; herbicidal action AVEFA (Avena fatua): 100; herbicidal action AMARE (Amaranthus retroflexus [8]; Dosage 80 g/ha): 90; herbicidal action ECHCG (Echinochloa crus-galli [9]; Dosage 80 g/ha): 100; herbicidal action MATIN (Matricaria inodora [10]; Dosage 80 g/ha): 90; herbicidal action PHBPU (Pharbitis purpurea; Dosage 80 g/ha): 80; herbicidal action STEME (Stellaria media [11]; Dosage 80 g/ha): 80; herbicidal action VERPE (Veronica persica [12]; Dosage 80 g/ha): 100; herbicidal action VIOTR (Viola tricolor [13]; Dosage 80 g/ha): 100
5 | CCCn1nnnc1NC(=O)c1ccc(C)c(CSC)c1Cl [Example 3-287] |  | 100 | 100 | 100 | 90 | 90 | 80 | 100 | 90 | 100 | 80 |  | 100 |  | 90 | 90 | 
6 | CCSc1c(C(=O)Nc2nnnn2C)ccc(C(F)(F)F)c1SCC [Example V-3, 2,3-bis(ethylsulfanyl)-N-(1-methyl-1H-tetrazol-5-yl)-4-(trifluoromethyl)benzamide, reference compound] |  |  |  |  |  |  |  |  |  |  |  |  |  |  |  |  | Herbicidal action against AMARE (Amaranthus retroflexus [2]; [15]): 0; pest or weed control at 20 g/ha (Echinochloa crus-galli [3]; Echinochloa crus-galli, 504 h, comparative experiment, 20 g of a.i./ha, read-out: Herbicidal action against ECHCG): 0%; Herbicidal action against MATIN (Matricaria inodora [4]; [15]): 0; Herbicidal action against STEME (Stellaria media [5]; [15]): 0; Herbicidal action against VERPE (Veronica persica [6]; [15]): 0; Herbicidal action against VIOTR (Viola tricolor [7]; [15]): 0; Herbicidal action against ABUTH (Abutilon theophrasti [14]; [16]): 0; Herbicidal action against AMARE (Amaranthus retroflexus [8]; [16]): 0; Herbicidal action against ECHCG (Echinochloa crus-galli [9]; [16]): 0; Herbicidal action against SETVI (Setaria viridis; [16]): 0; Herbicidal action against STEME (Stellaria media [11]; [16]): 0; Herbicidal action against VERPE (Veronica persica [12]; [16]): 0; Herbicidal action against VIOTR (Viola tricolor [13]; [16]): 0
